How the values were obtained:
Neutrophil elastase = biological target: T1, Neutrophil elastase (Homo sapiens, UniProt P08246); assay type: tissue-based;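 further: inhibition of neutrophil elastase enzyme activity, measured with a p-nitroanilide-linked peptide substrate; in other assays of this panel Not Active means under 50% inhibition at 10 µM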
T1 sequence (P08246 whole entry): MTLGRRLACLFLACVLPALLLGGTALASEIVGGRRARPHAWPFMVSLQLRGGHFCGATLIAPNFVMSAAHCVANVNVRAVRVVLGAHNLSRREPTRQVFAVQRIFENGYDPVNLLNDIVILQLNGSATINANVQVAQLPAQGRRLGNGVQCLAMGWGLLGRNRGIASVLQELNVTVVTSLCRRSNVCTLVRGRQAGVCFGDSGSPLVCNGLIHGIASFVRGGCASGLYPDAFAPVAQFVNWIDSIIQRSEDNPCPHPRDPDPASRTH

[1] = biological target: T2, Nitric oxide synthase, inducible (Mus musculus, UniProt P29477); parameters: species or system Escherichia coli;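 further: inhibition of iNOS enzyme activity measured with L-arginine as substrate; in other assays of this panel Not Active means under 50% inhibition at 10 µM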
T2 sequence (P29477 whole entry): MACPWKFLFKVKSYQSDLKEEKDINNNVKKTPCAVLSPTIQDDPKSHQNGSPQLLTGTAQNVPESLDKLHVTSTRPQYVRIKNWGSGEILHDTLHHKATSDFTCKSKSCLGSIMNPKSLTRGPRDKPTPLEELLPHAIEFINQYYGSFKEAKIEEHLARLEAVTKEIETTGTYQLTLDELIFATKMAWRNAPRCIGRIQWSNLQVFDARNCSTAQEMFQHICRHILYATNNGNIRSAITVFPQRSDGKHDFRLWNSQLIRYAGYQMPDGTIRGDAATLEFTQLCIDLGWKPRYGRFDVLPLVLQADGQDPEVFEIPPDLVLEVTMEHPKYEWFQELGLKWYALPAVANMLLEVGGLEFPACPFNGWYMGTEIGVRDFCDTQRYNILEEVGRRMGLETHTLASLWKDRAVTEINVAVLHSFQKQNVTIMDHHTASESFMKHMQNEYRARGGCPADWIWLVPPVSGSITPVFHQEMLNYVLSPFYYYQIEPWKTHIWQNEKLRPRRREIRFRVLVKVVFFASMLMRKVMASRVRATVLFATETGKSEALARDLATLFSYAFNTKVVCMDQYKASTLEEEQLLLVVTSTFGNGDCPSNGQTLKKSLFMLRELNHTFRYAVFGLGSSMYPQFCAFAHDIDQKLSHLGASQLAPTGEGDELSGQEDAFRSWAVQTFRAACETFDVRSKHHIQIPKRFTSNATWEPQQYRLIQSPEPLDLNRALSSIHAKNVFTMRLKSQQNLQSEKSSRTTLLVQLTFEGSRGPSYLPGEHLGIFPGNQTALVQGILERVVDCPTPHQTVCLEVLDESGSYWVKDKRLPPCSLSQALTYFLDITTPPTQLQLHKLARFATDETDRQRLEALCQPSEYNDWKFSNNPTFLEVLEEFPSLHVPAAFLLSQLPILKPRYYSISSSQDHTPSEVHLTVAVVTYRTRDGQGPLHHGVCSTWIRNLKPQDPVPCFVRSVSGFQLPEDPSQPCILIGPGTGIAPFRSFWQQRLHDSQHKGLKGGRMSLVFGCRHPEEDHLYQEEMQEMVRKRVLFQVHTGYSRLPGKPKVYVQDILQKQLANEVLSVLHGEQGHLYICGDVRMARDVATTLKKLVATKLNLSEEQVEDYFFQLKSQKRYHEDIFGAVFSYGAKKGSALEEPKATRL

[2] = biological target: Matrix metalloproteinase-9 (Homo sapiens, UniProt P14780); assay type: cell-based;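 further: inhibition of isolated MMP-9 enzyme activity toward a synthetic peptide substrate, from the DrugMatrix protease screening panel; in other assays of this panel Not Active means under 50% inhibition at 10 µM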
Sequence of Matrix metalloproteinase-9 (P14780 whole entry): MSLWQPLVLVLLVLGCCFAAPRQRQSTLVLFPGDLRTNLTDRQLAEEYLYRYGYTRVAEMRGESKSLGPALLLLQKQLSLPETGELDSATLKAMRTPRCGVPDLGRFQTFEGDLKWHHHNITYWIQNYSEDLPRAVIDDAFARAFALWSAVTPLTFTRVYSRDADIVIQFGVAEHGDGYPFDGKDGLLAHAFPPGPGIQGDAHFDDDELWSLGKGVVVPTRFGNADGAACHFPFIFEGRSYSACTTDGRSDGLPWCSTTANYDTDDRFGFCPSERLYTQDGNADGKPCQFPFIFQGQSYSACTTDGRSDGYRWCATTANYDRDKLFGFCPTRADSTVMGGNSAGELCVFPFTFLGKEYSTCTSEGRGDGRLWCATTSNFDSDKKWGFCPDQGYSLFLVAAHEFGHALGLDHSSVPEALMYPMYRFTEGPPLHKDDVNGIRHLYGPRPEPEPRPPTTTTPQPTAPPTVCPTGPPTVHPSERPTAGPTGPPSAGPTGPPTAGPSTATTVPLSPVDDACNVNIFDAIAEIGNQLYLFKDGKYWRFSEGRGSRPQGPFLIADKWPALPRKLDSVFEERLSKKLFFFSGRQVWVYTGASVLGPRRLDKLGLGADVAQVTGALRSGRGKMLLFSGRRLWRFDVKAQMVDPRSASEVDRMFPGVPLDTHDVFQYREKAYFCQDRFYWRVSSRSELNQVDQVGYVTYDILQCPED

[3] = DRUGMATRIX: Tumor Necrosis Factor (TNF), Non-Selective radioligand binding (ligand: [125I] TNF-alpha); assay type: cell membranes, Membrane; conditions: u-937; Not Active = under 50% inhibition at 10 µM
[4] = DRUGMATRIX: Imidazoline I2, Central radioligand binding (ligand: [3H] Idazoxan); assay type: cell membranes, Rattus norvegicus, Wistar, Cerebral cortex, Membrane; conditions: Not Active = under 50% inhibition at 10 µM
Vasopressin V1a receptor = Vasopressin V1a receptor (Homo sapiens, UniProt P37288); assay type: cell membranes, Membrane; conditions: hek293; further: in other assays of this panel Not Active means under 50% inhibition at 10 µM
Sequence of Vasopressin V1a receptor (P37288 whole entry): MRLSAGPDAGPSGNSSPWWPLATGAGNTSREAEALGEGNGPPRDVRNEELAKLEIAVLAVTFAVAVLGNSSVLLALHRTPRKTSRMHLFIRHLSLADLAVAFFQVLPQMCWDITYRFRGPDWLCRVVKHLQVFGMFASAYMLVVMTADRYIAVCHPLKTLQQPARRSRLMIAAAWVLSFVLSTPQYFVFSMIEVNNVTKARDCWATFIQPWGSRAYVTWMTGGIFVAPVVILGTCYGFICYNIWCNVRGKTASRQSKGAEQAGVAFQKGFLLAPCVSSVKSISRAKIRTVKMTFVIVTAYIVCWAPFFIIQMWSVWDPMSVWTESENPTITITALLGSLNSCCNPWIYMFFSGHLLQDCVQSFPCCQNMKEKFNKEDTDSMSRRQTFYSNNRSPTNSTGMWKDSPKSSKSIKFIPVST

[5] = biological target: Protein phosphatase 3 catalytic subunit alpha (Homo sapiens, UniProt Q08209); parameters: species or system Escherichia coli
[6] = biological target: Prostaglandin G/H synthase 1 (Homo sapiens, UniProt P23219); test: biochemical; assay type: tissue-based, Platelet; conditions: platelet
Sequence of Prostaglandin G/H synthase 1 (P23219 whole entry): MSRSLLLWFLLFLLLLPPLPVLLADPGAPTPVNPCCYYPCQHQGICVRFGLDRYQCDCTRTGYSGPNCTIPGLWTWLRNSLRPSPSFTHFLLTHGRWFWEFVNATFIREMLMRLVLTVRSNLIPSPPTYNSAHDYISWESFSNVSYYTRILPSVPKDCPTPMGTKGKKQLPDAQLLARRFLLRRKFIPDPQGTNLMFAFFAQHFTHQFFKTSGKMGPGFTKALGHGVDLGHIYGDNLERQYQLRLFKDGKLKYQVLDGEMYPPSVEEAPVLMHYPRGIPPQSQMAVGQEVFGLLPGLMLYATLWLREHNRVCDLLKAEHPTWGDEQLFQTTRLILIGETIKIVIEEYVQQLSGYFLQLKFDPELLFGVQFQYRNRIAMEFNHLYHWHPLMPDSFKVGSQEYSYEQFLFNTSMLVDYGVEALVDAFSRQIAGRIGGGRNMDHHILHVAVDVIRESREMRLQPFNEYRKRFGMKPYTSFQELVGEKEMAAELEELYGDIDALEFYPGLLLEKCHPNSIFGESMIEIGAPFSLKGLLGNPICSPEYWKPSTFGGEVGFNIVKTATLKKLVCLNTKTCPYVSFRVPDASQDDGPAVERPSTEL

Insulin receptor = Insulin receptor (Rattus norvegicus, UniProt P15127); assay type: cell membranes, Wistar, Liver, Membrane; further: in other assays of this panel Not Active means under 50% inhibition at 10 µM
Sequence of Insulin receptor (P15127 27-759 limits assumed): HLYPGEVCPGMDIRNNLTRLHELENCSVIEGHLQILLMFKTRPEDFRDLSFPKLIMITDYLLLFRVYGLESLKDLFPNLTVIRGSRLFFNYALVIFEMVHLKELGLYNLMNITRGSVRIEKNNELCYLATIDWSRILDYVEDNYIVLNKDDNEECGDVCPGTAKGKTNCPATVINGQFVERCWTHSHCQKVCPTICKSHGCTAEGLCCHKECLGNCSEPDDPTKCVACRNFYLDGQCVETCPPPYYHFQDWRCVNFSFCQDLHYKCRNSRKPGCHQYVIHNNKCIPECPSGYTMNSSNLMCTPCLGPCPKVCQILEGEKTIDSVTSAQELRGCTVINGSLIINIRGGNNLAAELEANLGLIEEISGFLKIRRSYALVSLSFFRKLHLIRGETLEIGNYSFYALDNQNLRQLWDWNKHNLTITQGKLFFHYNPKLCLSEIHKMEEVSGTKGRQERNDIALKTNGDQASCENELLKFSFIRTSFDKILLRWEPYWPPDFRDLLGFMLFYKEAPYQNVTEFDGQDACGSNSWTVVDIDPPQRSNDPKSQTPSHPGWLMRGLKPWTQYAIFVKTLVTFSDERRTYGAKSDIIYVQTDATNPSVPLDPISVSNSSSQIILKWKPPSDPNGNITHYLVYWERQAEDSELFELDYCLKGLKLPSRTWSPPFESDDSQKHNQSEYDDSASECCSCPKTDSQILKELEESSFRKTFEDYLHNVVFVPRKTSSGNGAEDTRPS
Sequence of Insulin receptor (P15127 764-1383 limits assumed): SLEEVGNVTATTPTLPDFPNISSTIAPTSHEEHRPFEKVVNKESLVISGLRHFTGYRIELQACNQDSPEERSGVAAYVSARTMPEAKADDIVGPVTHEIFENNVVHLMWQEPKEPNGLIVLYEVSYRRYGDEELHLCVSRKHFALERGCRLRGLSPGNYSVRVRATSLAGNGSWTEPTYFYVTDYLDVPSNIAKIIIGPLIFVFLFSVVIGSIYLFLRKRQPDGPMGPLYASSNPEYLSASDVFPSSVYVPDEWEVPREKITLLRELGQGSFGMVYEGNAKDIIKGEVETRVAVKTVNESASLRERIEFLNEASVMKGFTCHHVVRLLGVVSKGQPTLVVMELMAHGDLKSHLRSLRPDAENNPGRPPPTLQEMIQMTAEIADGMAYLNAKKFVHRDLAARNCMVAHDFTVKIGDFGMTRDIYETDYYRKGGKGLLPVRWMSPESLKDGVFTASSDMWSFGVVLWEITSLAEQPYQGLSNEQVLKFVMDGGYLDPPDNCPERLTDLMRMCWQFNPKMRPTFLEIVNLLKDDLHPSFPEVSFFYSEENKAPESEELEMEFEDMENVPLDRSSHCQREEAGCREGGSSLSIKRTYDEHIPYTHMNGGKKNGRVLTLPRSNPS

[7] = biological target: T3, Muscarinic acetylcholine receptor M2 (Homo sapiens, UniProt P08172); assay type: cell membranes, CHO-K1, Membrane; conditions: cho-k1; further: in other assays of this panel Not Active means under 50% inhibition at 10 µM
T3 sequence (P08172 whole entry): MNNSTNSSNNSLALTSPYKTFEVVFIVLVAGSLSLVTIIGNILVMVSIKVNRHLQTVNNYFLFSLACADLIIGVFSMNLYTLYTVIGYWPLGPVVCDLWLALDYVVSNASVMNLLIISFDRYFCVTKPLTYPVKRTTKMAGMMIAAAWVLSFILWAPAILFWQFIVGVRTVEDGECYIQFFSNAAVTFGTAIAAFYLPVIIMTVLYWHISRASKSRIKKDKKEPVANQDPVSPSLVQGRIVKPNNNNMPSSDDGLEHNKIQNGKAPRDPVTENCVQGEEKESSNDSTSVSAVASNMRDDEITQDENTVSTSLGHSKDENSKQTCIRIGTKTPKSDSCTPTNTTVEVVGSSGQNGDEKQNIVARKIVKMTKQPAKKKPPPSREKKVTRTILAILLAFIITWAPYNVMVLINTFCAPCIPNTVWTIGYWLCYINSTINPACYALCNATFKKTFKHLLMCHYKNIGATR

Nitric oxide synthase 1 = Nitric oxide synthase 1 (Rattus norvegicus, UniProt P29476); assay type: tissue-based, Cerebellum; further: in other assays of this panel Not Active means under 50% inhibition at 10 µM
Sequence of Nitric oxide synthase 1 (P29476 whole entry): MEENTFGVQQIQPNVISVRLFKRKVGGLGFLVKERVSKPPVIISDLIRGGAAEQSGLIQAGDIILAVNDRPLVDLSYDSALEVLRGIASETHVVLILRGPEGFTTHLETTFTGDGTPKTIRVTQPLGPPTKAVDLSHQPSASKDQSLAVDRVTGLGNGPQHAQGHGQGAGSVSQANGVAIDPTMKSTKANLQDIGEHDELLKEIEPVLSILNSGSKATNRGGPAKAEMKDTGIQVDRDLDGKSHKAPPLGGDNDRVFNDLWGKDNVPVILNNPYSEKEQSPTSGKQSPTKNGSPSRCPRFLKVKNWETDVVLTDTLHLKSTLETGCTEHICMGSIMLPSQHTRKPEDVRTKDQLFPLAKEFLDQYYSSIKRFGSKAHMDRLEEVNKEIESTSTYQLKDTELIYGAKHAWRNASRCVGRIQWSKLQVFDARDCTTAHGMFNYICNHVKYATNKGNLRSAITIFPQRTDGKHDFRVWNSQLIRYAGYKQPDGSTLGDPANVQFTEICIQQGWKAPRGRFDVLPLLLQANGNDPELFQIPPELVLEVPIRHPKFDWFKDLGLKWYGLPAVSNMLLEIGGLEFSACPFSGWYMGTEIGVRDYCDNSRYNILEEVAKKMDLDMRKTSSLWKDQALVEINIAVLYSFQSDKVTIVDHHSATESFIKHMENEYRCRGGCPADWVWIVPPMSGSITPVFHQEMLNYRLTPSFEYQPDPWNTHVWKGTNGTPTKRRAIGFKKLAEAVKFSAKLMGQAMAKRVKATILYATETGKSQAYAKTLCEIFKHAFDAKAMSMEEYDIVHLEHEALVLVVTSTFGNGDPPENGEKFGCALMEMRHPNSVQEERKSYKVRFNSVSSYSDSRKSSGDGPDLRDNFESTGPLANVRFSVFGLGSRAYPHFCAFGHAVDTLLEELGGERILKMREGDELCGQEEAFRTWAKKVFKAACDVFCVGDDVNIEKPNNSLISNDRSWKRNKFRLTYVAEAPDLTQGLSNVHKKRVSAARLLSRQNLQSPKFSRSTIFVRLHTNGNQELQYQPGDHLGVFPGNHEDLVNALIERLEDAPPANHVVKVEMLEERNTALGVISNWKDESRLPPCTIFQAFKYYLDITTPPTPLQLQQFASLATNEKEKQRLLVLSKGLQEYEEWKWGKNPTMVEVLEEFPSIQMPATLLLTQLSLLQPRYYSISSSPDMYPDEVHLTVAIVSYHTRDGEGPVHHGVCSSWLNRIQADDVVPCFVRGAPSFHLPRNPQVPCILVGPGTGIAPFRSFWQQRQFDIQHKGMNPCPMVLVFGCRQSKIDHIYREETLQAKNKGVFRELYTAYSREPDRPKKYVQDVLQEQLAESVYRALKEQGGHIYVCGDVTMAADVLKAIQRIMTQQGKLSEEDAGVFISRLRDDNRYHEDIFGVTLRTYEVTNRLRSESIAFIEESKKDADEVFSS

B2 bradykinin receptor = biological target: T4, B2 bradykinin receptor (Homo sapiens, UniProt P30411); assay type: cell membranes, Membrane; conditions: chem-1; further: in other assays of this panel Not Active means under 50% inhibition at 10 µM
T4 sequence (P30411 whole entry): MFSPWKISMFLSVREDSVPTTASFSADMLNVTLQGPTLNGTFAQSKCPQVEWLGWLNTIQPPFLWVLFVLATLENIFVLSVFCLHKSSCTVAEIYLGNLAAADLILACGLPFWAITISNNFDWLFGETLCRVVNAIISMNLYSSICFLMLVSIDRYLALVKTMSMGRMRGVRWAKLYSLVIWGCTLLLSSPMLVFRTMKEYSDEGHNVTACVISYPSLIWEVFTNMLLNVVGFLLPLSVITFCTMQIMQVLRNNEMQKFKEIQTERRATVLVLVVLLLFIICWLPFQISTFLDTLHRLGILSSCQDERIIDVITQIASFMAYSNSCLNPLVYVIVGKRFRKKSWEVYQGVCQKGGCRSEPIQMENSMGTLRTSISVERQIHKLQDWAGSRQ

[8] = DRUGMATRIX: Leukotriene, BLT (LTB4) radioligand binding (ligand: [3H]LTB4); assay type: cell membranes, Membrane; conditions: u-937; Not Active = under 50% inhibition at 10 µM

CC1CN(c2cc3c(cc2F)c(=O)c(C(=O)O)cn3-c2ccc(F)cc2F)CCN1 (stereo not drawn) [TEMAFLOXACIN]
Not Active: IC50 (Neutrophil elastase) | IC50 [1] | IC50 [2] | IC50 [3] | Ki [3] | IC50 [4] | Ki [4] | IC50 (Vasopressin V1a receptor) | IC50 [5] | IC50 [6] | IC50 (Insulin receptor) | IC50 [7] | IC50 (Nitric oxide synthase 1) | IC50 (B2 bradykinin receptor) | IC50 [8] | Ki [8]

CN(C)[C@@H]1C(O)=C(C(N)=O)C(=O)[C@@]2(O)C(O)=C3C(=O)c4c(O)cccc4[C@@](C)(O)[C@H]3C[C@@H]12 [TETRACYCLINE]
Not Active: IC50 (Neutrophil elastase) | IC50 [1] | IC50 [2] | IC50 [3] | Ki [3] | IC50 [4] | Ki [4] | IC50 (Vasopressin V1a receptor) | IC50 [5] | IC50 [6] | IC50 (Insulin receptor) | IC50 [7] | IC50 (Nitric oxide synthase 1) | IC50 (B2 bradykinin receptor) | IC50 [8] | Ki [8]

COc1cc(C(=O)NC2CCCNC2)cc(OC)c1OC (stereo not drawn) [TROXIPIDE]
Not Active: IC50 (Neutrophil elastase) | IC50 [1] | IC50 [2] | IC50 [3] | Ki [3] | IC50 [4] | Ki [4] | IC50 (Vasopressin V1a receptor) | IC50 [5] | IC50 [6] | IC50 (Insulin receptor) | IC50 [7] | IC50 (Nitric oxide synthase 1) | IC50 (B2 bradykinin receptor) | IC50 [8] | Ki [8]

IVERMECTIN
Not Active: IC50 (Neutrophil elastase) | Ki (Neutrophil elastase) | IC50 [1] | Ki [1] | IC50 [2] | Ki [2] | IC50 [3] | Ki [3] | IC50 [4] | Ki [4] | IC50 (Vasopressin V1a receptor) | Ki (Vasopressin V1a receptor) | IC50 [5] | Ki [5] | IC50 [6] | Ki [6] | IC50 (Insulin receptor) | Ki (Insulin receptor) | IC50 [7] | Ki [7] | IC50 (Nitric oxide synthase 1) | Ki (Nitric oxide synthase 1) | IC50 (B2 bradykinin receptor) | Ki (B2 bradykinin receptor) | IC50 [8] | Ki [8]

CC1(C)[C@H]2CC[C@]1(C)C(=O)C2 [(-)-CAMPHOR]
Not Active: IC50 (Neutrophil elastase) | IC50 [1] | IC50 [2] | IC50 [3] | Ki [3] | IC50 [4] | Ki [4] | IC50 (Vasopressin V1a receptor) | IC50 [5] | IC50 [6] | IC50 (Insulin receptor) | IC50 [7] | IC50 (Nitric oxide synthase 1) | IC50 (B2 bradykinin receptor) | IC50 [8] | Ki [8]

Nc1ccc(S(N)(=O)=O)cc1 [SULFANILAMIDE]
Not Active: IC50 (Neutrophil elastase) | IC50 [1] | IC50 [2] | IC50 [3] | Ki [3] | IC50 [4] | Ki [4] | IC50 (Vasopressin V1a receptor) | IC50 [5] | IC50 [6] | IC50 (Insulin receptor) | IC50 [7] | IC50 (Nitric oxide synthase 1) | IC50 (B2 bradykinin receptor) | IC50 [8] | Ki [8]

c1ccc2[nH]c(-c3cscn3)nc2c1 [THIABENDAZOLE]
Not Active: IC50 (Neutrophil elastase) | IC50 [1] | IC50 [2] | IC50 [3] | Ki [3] | IC50 [4] | Ki [4] | IC50 (Vasopressin V1a receptor) | IC50 [5] | IC50 [6] | IC50 (Insulin receptor) | IC50 [7] | IC50 (Nitric oxide synthase 1) | IC50 (B2 bradykinin receptor) | IC50 [8] | Ki [8]

CC[C@H]1OC(=O)[C@H](C)[C@@H](O[C@H]2C[C@@](C)(OC)[C@@H](O)[C@H](C)O2)[C@H](C)[C@@H](O[C@@H]2O[C@H](C)C[C@H](N(C)C)[C@H]2O)[C@](C)(O)C[C@@H](C)/C(=N\OCOCCOC)[C@H](C)[C@@H](O)[C@]1(C)O [ROXITHROMYCIN]
Not Active: IC50 (Neutrophil elastase) | IC50 [1] | IC50 [2] | IC50 [3] | Ki [3] | IC50 [4] | Ki [4] | IC50 (Vasopressin V1a receptor) | IC50 [5] | IC50 [6] | IC50 (Insulin receptor) | IC50 [7] | IC50 (Nitric oxide synthase 1) | IC50 (B2 bradykinin receptor) | IC50 [8] | Ki [8]

Source: ChEMBL document CHEMBL1909046, “DrugMatrix in vitro pharmacology data”
